The values that follow come from patent US11608335B2, “Somatostatin modulators and uses thereof” (CRINETICS PHARMACEUTICALS, INC., priority 2018, dated 2023).

SMILES strings stand for the structures.

human somatostatin receptor subtype 5, sequence (P35346 whole entry): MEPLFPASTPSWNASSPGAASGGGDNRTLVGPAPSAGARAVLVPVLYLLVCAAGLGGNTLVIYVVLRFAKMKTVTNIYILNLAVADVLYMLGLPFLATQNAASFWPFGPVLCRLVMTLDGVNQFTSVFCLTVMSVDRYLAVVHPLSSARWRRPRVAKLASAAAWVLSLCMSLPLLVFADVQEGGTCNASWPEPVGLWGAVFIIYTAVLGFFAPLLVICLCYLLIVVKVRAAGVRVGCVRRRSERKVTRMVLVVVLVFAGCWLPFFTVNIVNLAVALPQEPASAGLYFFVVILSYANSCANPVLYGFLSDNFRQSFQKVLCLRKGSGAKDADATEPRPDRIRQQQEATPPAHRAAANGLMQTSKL

This experiment has as its target human somatostatin receptor subtype 5 (Homo sapiens, UniProt P35346). Put plainly: cAMP assay for SST5R (inhibition of cAMP via human SST5 receptor). A general note: Changes in cAMP serve as a functional read-out for many G protein-coupled receptors.
One may read the EC50 as the concentration needed to bring the measured effect to its halfway point. Higher therefore signals weaker potency. The compound `N#Cc1cccc(-c2cncc(-c3nc4c(CO)cccc4[nH]3)c2N2CC[C@H](N)C2)c1` [Compound 2-91, 3-{4-[(3S)-3-aminopyrrolidin-1-yl]-5-[7-(hydroxymethyl)-1H-1,3-benzodiazol-2-yl]pyridin-3-yl}benzonitrile] showed a concentration for a half-maximal effect (EC50) of 100 to 1000 nM.

In turn, `CS(=O)(=O)c1cc(F)cc(-c2cncc(-c3nc4cccc(F)c4[nH]3)c2N2CC[C@H](N)C2)c1` [Compound 2-92, (3S)-1-[3-(4-fluoro-1H-1,3-benzodiazol-2-yl)-5-(3-fluoro-5-methanesulfonylphenyl)pyridin-4-yl]pyrrolidin-3-amine] gave an EC50 of 10 to 100 nM.

The compound `CS(=O)(=O)c1cccc(-c2cncc(-c3nc4cc(F)cc(F)c4[nH]3)c2N2CC[C@H](N)C2)c1` [Compound 2-93, (3S)-1-[3-(4,6-difluoro-1H-1,3-benzodiazol-2-yl)-5-(3-methanesulfonylphenyl)pyridin-4-yl]pyrrolidin-3-amine] displayed an EC50 of 100 to 1000 nM.

For the compound `N[C@H]1CCN(c2c(-c3cc(F)cc(Cl)c3)cncc2-c2nc3ccc(Cl)cc3[nH]2)C1` [Compound 2-95, (3S)-1-[3-(5-chloro-1H-1,3-benzodiazol-2-yl)-5-(3-chloro-5-fluorophenyl)pyridin-4-yl]pyrrolidin-3-amine], the EC50 was in the range of 10 to 100 nM.

The compound `Cc1ccc(F)c2nc(-c3cncc(-c4cc(F)cc(C(N)=O)c4)c3N3CC[C@H](N)C3)[nH]c12` [Compound 2-96, 3-{4-[(3S)-3-aminopyrrolidin-1-yl]-5-(7-fluoro-4-methyl-1H-1,3-benzodiazol-2-yl)pyridin-3-yl}-5-fluorobenzamide] showed an EC50 of less than 10 nM.

Compound `Cc1cccc2nc(-c3cncc(-c4cccc(C(N)=O)c4)c3N3CC[C@H](N)C3)[nH]c12` [Compound 2-97, 3-{4-[(3S)-3-aminopyrrolidin-1-yl]-5-(4-methyl-1H-1,3-benzodiazol-2-yl)pyridin-3-yl}benzamide] had an EC50 of less than 10 nM.

With `Cc1cccc2nc(-c3cncc(-c4ccc(Cl)c(C#N)c4)c3N3CC[C@H](N)C3)[nH]c12` [Compound 2-98, 5-{4-[(3S)-3-aminopyrrolidin-1-yl]-5-(4-methyl-1H-1,3-benzodiazol-2-yl)pyridin-3-yl}-2-chlorobenzonitrile], the EC50 is less than 10 nM.

`N#Cc1cc(F)cc(-c2cncc(-c3nc4ccc(F)c(F)c4[nH]3)c2N2CC[C@H](N)C2)c1` [Compound 2-99, 3-{4-[(3S)-3-aminopyrrolidin-1-yl]-5-(4,5-difluoro-1H-1,3-benzodiazol-2-yl)pyridin-3-yl}-5-fluorobenzonitrile] came in with an EC50 of less than 10 nM.

In turn, `CCc1cccc2[nH]c(-c3cncc(-c4cccc(C#N)c4)c3N3CC[C@H](N)C3)nc12` [Compound 2-100, 3-{4-[(3S)-3-aminopyrrolidin-1-yl]-5-(4-ethyl-1H-1,3-benzodiazol-2-yl)pyridin-3-yl}benzonitrile] showed an EC50 of less than 10 nM.

In the case of `Cc1ccc2nc(-c3cncc(-c4cc(F)cc(Cl)c4)c3N3CC[C@H](N)C3)[nH]c2c1` [Compound 2-102, (3S)-1-[3-(3-chloro-5-fluorophenyl)-5-(5-methyl-1H-1,3-benzodiazol-2-yl)pyridin-4-yl]pyrrolidin-3-amine], the EC50 is less than 10 nM.

`N#Cc1ccc2nc(-c3cncc(-c4cc(F)cc(Cl)c4)c3N3CC[C@H](N)C3)[nH]c2c1` [Compound 2-103, 2-{4-[(3S)-3-aminopyrrolidin-1-yl]-5-(3-chloro-5-fluorophenyl)pyridin-3-yl}-1H-1,3-benzodiazole-5-carbonitrile] registered an EC50 of 10 to 100 nM.

`COc1ccc2nc(-c3cncc(-c4cc(F)cc(Cl)c4)c3N3CC[C@H](N)C3)[nH]c2c1` [Compound 2-104, (3S)-1-[3-(3-chloro-5-fluorophenyl)-5-(5-methoxy-1H-1,3-benzodiazol-2-yl)pyridin-4-yl]pyrrolidin-3-amine] came in with an EC50 of 10 to 100 nM.

As to `Cc1cccc2nc(-c3cncc(-c4ccnc(C(N)=O)c4)c3N3CCC(C)(N)C3)[nH]c12` (stereo not shown) [Compound 2-105, 4-(3-amino-3-methylpyrrolidin-1-yl)-5-(4-methyl-1H-1,3-benzodiazol-2-yl)-[3,4′-bipyridine]-2′-carboxamide], the concentration for a half-maximal effect (EC50) was 10 to 100 nM.
